Tests used:
Type in all cases: cell-based
[1] = test system: Human Burkitt's B-lymphoma cells (Raji); assay: Cell death by LDH release (CytoTox 96); settings: 10^−4M
Description: Human Burkitt's B-lymphoma cells (Raji) were seeded in 96 well plates (0.5 ml per well of 0.5 million cells/ml) and A 77636 hydrochloride was added and diluted 1:00 into the wells, at a fixed starting concentration of 10^−2M, so that the final concentration tested was 10^−4M. The cells were then transferred to an incubator (37° C., humidified incubator, 5% CO2) for 1 min, 10 min, 30 min, 60 min or 120 min incubation.

[2] = test system: Human cutaneous Sezary T-lymphoma cells (HuT-78); assay: Number of living cells counted by flow cytometry (FACSort) after D1R agonist; settings: 10^−3M-10^−6M, 3 days
Description: (§1) Human cutaneous Sezary T-lymphoma cells (HUT-78) were seeded in 96 well plates (0.5 ml per well of 0.5 million cells/ml) and A 77636 hydrochloride was added and diluted 1:00 into the wells at starting concentrations of 10^−1M-10^−4M, so that the final concentration range tested was 10^−3M-10^−6M. Afterwards, the microtiter plates were placed in an incubator (37° C., humidified incubator, 5% CO2) for 3 days. Then, the number of living cells was evaluated by flow cytometry (the cells were counted by FACsort for a fixed time length of 1 min, in which 100 microliter of each sample was tested).
as §1, with “68930” for “77636”
as §1, with “SKF 38393 hydrobromide” for “A 77636 hydrochloride”
Cell viability was tested afterwards. […]
(§2) Cell survival/death was evaluated 3 days later by counting the number of living cells, using flow cytometry.

[3] = test system: Human Burkitt's B-cell lymphoma (Raji) cells; assay: as above; settings: 10^−3M-10^−6M, 3 days
Description: (§3) Afterwards, the microtiter plates were placed in an incubator (37° C., humidified incubator, 5% CO2) for 3 days. Then, the number of living cells was evaluated by flow cytometry (the cells were counted by FACsort for a fixed time length of 1 min, in which 100 microliter of each sample was tested).
(§4) Cell viability was tested afterwards.

[4] = test system: Human chronic myelogenous leukemia cells (CML) (K-562); assay: as above; settings: for % of the cells killed: living cells counted 3 days later
Description: as §1, with “chronic myelogenous leukemia” for “cutaneous Sezary T-lymphoma”, “(CML) (K-562)” for “(HUT-78)”
as §1, with “chronic myelogenous leukemia” for “cutaneous Sezary T-lymphoma”, “(CML) (K-562)” for “(HUT-78)”, “68930” for “77636”
as §1, with “chronic myelogenous leukemia” for “cutaneous Sezary T-lymphoma”, “(CML) (K-562)” for “(HUT-78)”, “SKF 38393 hydrobromide” for “A 77636 hydrochloride”
Human chronic myelogenous leukemia cells (CML) (K-562) were seeded in 96 well plates (0.5 ml per well of 0.5 million cells/ml) and A 77636 hydrochloride was added and diluted 1:00 into the wells, at a fixed starting concentration of 10^−2M, so that the final concentration tested was 10^−4M. The experiment was designed to test the effect of exposing the cells to the D1R agonist for 1 min, 15 min, 1 hr or 72 hr. Thus, 1 min, or 15 min or 1 hr after the addition of the D1R agonist, the corresponding cells were transferred into tubes, centrifuged (1000 rpm for 10 min), and the supernatant was removed. […] Thus, its medium was not replaced, and these cells and remained as such in the incubator for 72 hr. At the end of the 72 hr incubation, the number of living cells was evaluated by flow cytometry (the cells were counted by FACsort for a fixed time length of 1 min, in which 100 microliter of each sample was tested).
as §4
For this purpose, the Jurkat T-cell leukemia line, the HuT-78 human T-lymphoma (cutaneous “Sezary” T-lymphoma) line, and the K-562 human Chronic-Myeloid Leukemia (CML) and Daudi Human B-lymphoma (Burkitt's lymphoma) lines were seeded in tissue culture wells (0.5 million cells/0.5 ml/well).
as §2
The effect of dopamine itself (that can of course activate all its D1R-5 receptors) was also tested. All of these molecules were tested at a similar concentration (10^−4 M). […] The specificity and restriction of the effect to the D1R is also seen in Tables 7 and 8.

[5] = test system: resting normal human T-cells; assay: as above
Description: as §3
FIGS. 31A and B are graphs showing that A 77636 hydrochloride kills much more TCR-activated (FIG. 31B) than resting normal (FIG. 31A) human T-cells. […] The cells were then transferred to the incubator for 72 hr incubation. At the end of the 72 hr incubation, the number of living cells in each well was evaluated by flow cytometry (the cells were counted by FACsort for a fixed time length of 1 min, in which 100 microliter of each sample was tested).
as §4

Cl.NC[C@@H]1O[C@H](C23CC4CC(CC(C4)C2)C3)Cc2c1ccc(O)c2O [A 77636 hydrochloride, (1R-cis)-1-(aminomethyl)-3,4-dihydro-3-tricyclo[3.3.1.13,7]dec-1-yl-[1H]-2-benzopyran-5,6-diol hydrochloride]
Exposure time at which extent of cell death reaches a plateau ([1]; LDH release): 1 h | Elevation in the release of LDH ([1]; exposure for 1 minute): ≈ 3 fold | Speed of cell death by LDH release (FIG. 28), in words ([1]; 1, 10, 30, 60 or 120 min): very rapid death | Cell death by number of living cells (FIGS. 13-15), in words [2]: induces marked cell death | Cell death by number of living cells (FIGS. 19-21), in words [3]: induces marked cell death | Cell death by number of living cells (FIGS. 22-24), in words ([4]; 10^−3M-10^−6M, 3 days): induces marked cell death | % of the cells killed ([4]; 10^−4M, exposure 1 minute then washed): ≈ 48% | % of the cells killed ([4]; 10^−4M, exposure 15 minutes then washed): 60% | % of the cells killed ([4]; 10^−4M, exposure 1 hour then washed): 76% | Killing, in words ([4]; 10^−4M, incubation 72 hours): no additional value beyond the 1-hour effect | Speed of cell death by number of living cells (FIG. 29), in words ([4]; 10^−4M, exposure 1 min, 15 min, 1 hr or 72 hr): very rapid death | Killing effect by number of living cells (FIGS. 25-27), in words ([5]; 10^−3M-10^−6M, 3 days): significantly milder killing effect | % of cells killed ([5]; 10^−5 M, 72 hr): 12%
